Data as given in US20180344696A1, “SYNERGISTIC COMBINATION OF PYRROLIDONE CARBOXYLIC ACID AND/OR SALTS THEREOF AND HYALURONIC ACID AND/OR SALTS THEREOF, FOR USE IN THE TREATMENT AND/OR PREVENTION OF DRYNESS AND IRRITATION OF THE MUCOSAE, AND RELATED PHARMACEUTICAL FORMULATIONS” (LABORATORI BALDACCI S.P.A., priority 2015, published 2018).

Columns and labels:
[1] = Hygroscopic test according to Farmacopea Ufficiale Italiana (FUI) XII; type: physicochemical; details: 5.00 g dried sample, 25° C., 24 hours
Method: The determination of hygroscopicity of the combination of PCA and hyaluronic acid was performed, a test related to the hydration capability of a compound or mixture of compounds, to evaluate the synergism of the combination of PCA and hyaluronic acid for use in the treatment and/or prevention of dryness and irritation of the mucosae. […] At the end of the procedure, the contained was closed with its lid and weighed again (m3).

[2] = Permanence of PCA in mucosal tissue after topical application (general statements); type: in vivo
[3] = Determination of PCA permanence on the nasal mucosa (HPLC recovery after applying gel); type: in vivo, human
Method: The samples were taken at various time points after administration, in order to accurately collect all the material present on the mucosa. After restoring to a certain volume of water (20 ml), the suspension obtained was filtered, and then 20 μl were injected into a chromatograph for quantitative analysis. A Waters liquid chromatograph with the following parameters was used: • Column: μBondapack C18 • Mobile phase: 0.1 M phosphoric acid at pH 3 with sodium hydroxide. • Flow: 1.5 ml/min • Detector: Spectrophotometer at 210 nm

Row | Result (hygroscopicity class) [1] | Water adsorption (%) (average of the triplicate) [1] | Water adsorption (g) (average of the triplicate) [1] | Final Weight ([1]; desiccator with saturated ammonium chloride or ammonium sulfate solution) [g] | Administered amount of PCA identified in mucosal tissues ([2]; 4 hours after a topical application of the formulations of the invention) | Time PCA remains in the mucosae ([2]; after topical application) [h] | PCA percentage present in the nasal mucosa, % of recovery based on the standard ([3]; T = 0 after administration, 100 mg gel of Example 2 (1% PCA, 0.05% hyaluronic acid) on nasal mucosa) [% n = 1] | PCA percentage present in the nasal mucosa, % of recovery based on the standard ([3]; T = 60 after administration, 100 mg gel of Example 2 on nasal mucosa) [% n = 2] | PCA percentage present in the nasal mucosa, % of recovery based on the standard ([3]; T = 120 after administration, 100 mg gel of Example 2 on nasal mucosa) [% n = 2] | PCA percentage present in the nasal mucosa, % of recovery based on the standard ([3]; T = 180 after administration, 100 mg gel of Example 2 on nasal mucosa) [% n = 3] | Time PCA is present on the nasal mucosa after application ([3]; gel formulation from Example 2 on the nasal mucosa) [h] | Compound
1 | hygroscopic | 6.00 | 0.30 | 5.30 ± 0.05 |  |  |  |  |  |  |  | Hyaluronic acid [100% HA]
2 |  |  |  |  | approximately 80% | > 4 | 95 | 80 | 78 | 70 | ≥ 4 | O=C1CCC(C(=O)O)N1 (centres unmarked) [PCA, Pyrrolidone carboxylic acid]
